Measured values reported in US20250034099A1, “BENZOXAZINONE DERIVATIVES” (CHIA TAI TIANQING PHARMACEUTICAL GROUP CO., LTD., priority 2021, published 2025).
Like-named read-outs stand apart in the source and are kept apart here.

Columns and labels:
MR = target: T1, MR (Homo sapiens, UniProt P08235); test: In vitro evaluation of MR antagonistic activity (HEK293/Gal4/MR cell line, Bright Glo); format: cell-based; conditions: HEK293/Gal4/MR cells, aldosterone final 1 nmol, 24 h incubation
T1 sequence (P08235 726-984 limits assumed): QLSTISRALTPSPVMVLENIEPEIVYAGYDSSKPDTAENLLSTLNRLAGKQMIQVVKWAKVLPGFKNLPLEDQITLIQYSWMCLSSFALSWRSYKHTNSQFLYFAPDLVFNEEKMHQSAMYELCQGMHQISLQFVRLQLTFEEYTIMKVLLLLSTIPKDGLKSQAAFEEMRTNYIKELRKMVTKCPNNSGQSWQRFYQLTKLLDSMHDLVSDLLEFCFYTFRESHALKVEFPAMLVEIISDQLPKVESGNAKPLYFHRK
Protocol: Purpose of Experiment: to assay the MR antagonistic activity of the compounds
A DMEM medium purchased from BI; fetal bovine serum purchased from Biosera; an HEK293/Gal4/MR cell line provided by Wuhan Heyan Biomedical Technology Co., Ltd.; Bright Glo purchased from Promega; and an EnVision multi-marker analyzer (PerkinElmer).
MR cells were seeded in a white 96-well plate, with […] of cell suspension containing 40000 cells added to each well. The cell plate was incubated in a CO2 incubator overnight.
The compounds to be tested were serially 5-fold diluted to the 8th concentration point with a multi-channel pipette, and the compound concentration ranged from 2 mmol to […]. 38 μL of the medium was added to an intermediate plate, and the compound was added to corresponding wells of the intermediate plate at 2 μL/well. After well mixing, the compound solution was transferred to the cell plate at 10 μL/well, and the cell plate was incubated in a CO2 incubator for 1 h. Aldosterone was diluted to 10 nmol with a medium, i.e., 20 μL of aldosterone with a concentration of 1 μmol was added to 1980 μL of the medium. After well mixing, 10 μL of the aldosterone solution was added to each well of the cell plate except the positive control wells. The cell plate was incubated in a CO2 incubator for 24 h. The final concentration of the compound ranged from 10 μmol to 0.128 nmol, and the final concentration of aldosterone was 1 nmol. After the incubation was completed, the cell supernatant was discarded, and the Bright Glo reagent was added to the cell plate at 100 μL/well. Readings were taken immediately on the EnVision multi-marker analyzer.
The original data were converted to inhibition rates using the following equation: % inhibition=((RFUcmpd−AVER(RFUNeg.Ctrl))/((AVER(RFUPos.Ctrl)−AVER(RFUNeg.Ctrl))×100%. Compound curves were fitted by log(inhibitor) vs. response-Variable slope of Graphpad Prism 5. IC50 values were calculated by the software using the following formula: Y=Bottom+(Top−Bottom)/(1+10^((Log IC50−X)×HillSlope)).

[1] = Pharmacokinetic evaluation in rats after IV and PO administration; format: in vivo; conditions: rat, plasma, male SD rats; for bioavailability / clearance / Vd: IV (1 mg/kg); for bioavailability: read-out: Bioavailability F (%); for clearance: read-out: Clearance CL; for Vd: read-out: Tissue distribution Vdss; for AUC(0-t): read-out: Area under plasma concentration-time curve AUC0-last PO; for Cmax: read-out: Peak concentration Cmax
Protocol: SD rats (male, 7-9 weeks old, Beijing Vital River Laboratory Animal Technology Co., Ltd.)
Pharmacokinetic characteristics of the compounds after intravenous injection (IV) and oral administration (PO) in rodents were tested by a standard scheme. The rats were subjected to intravenous injection and oral administration once in the experiment. […]. The vehicle for the intravenous injection was a clear solution of 80% polyethylene glycol 400/20% water, and the vehicle for the oral administration was a homogeneous suspension of 99.9% (0.5% HPMC:Solutol HS15=95:5)/0.1% Tween 80. Four male SD rats were used in this project. Two rats were subjected to intravenous injection, and plasma samples were collected at 0 h (before administration) and 0.083, 0.25, 0.5, 1, 2, 4, 8 and 24 h (after administration); the other two rats were subjected to oral intragastric administration, and plasma samples were collected at 0 h (before administration) and 0.25, 0.5, 1, 2, 4, 8, and 24 h (after administration). Whole blood samples within 24 h were collected. All blood samples were immediately transferred to labeled commercial centrifuge tubes containing K2-EDTA. After blood sample collection, the plasma supernatant was taken by centrifugation at 3200 g at 4° C. for 10 min, immediately placed in dry ice, and then stored at −60° C. or a lower temperature for LC-MS/MS analysis. Plasma concentration-time data were analyzed by a non-compartmental model using a WinNonlin software package (Version 6.3 and above), and pharmacokinetic parameters such as peak concentration (Cmax), clearance (CL), tissue distribution (Vdss), area under plasma concentration-time curve (AUC0-last), bioavailability (F) and the like were calculated.

nuclear receptor = conditions: background statement; cited from earlier work

| Structure (SMILES) | IC50 (MR) [nM] | further results |
| --- | --- | --- |
| CNC(=O)CC1COc2cc(F)cc(F)c2N1Cc1cc(C)c2c(c1)NC(=O)CO2 (single isomer, unassigned) [Compound 8a] | 130 | – |
| Cc1noc(CC2COc3cc(F)ccc3N2C(C)c2ccc3c(c2)NC(=O)CO3)n1 (single isomer, unassigned) [Compound 35a] | 251 | – |
| Cc1noc(CC2COc3cc(F)ccc3N2C(C)c2ccc3c(c2)NC(=O)CO3)n1 (single isomer, unassigned) [Compound 35b] | 76.6 | – |
| CNC(=O)CC1COc2cc(F)ccc2N1Cc1cc(Cl)c2c(c1)NC(=O)CO2 (stereo not shown) [Compound 4] | 289 | – |
| CNC(=O)CC1COc2cc(F)cc(F)c2N1Cc1ccc2c(c1)NC(=O)CO2 (stereo not shown) [Compound 5] | 325 | – |
| CNC(=O)CC1COc2cc(F)ccc2N1C(C)c1ccc2c(c1)NC(=O)CO2 (stereo not shown) [Compound 6] | 273 | – |
| CS(=O)(=O)CC1COc2cc(F)ccc2N1Cc1ccc2c(c1)NC(=O)CO2 (stereo not shown) [Compound 7] | 519 | – |
| CCNC(=O)C[C@H]1COc2cc(F)ccc2N1Cc1ccc2c(c1)NC(=O)CO2 [Compound 9] | 403 | – |
| Cc1nnn(C[C@H]2COc3cc(F)ccc3N2Cc2ccc3c(c2)NC(=O)CO3)n1 [Compound 14] | 78 | – |
| O=C1COc2ccc(CN3c4ccc(F)cc4OC[C@@H]3Cc3nc(CO)no3)cc2N1 [Compound 15] | 107 | – |
| Cc1noc(C[C@H]2COc3cc(F)ccc3N2Cc2cc3c(cc2F)OCC(=O)N3)n1 [Compound 19] | 66 | – |
| Cc1nc(C[C@H]2COc3cc(F)ccc3N2Cc2cc(Cl)c3c(c2)NC(=O)CO3)no1 [Compound 25] | 72 | – |
| Cn1nnc(C[C@H]2COc3cc(F)ccc3N2Cc2ccc3c(c2)NC(=O)CO3)n1 [Compound 27] | 80 | – |
| Cn1nnc(C[C@H]2COc3cc(F)ccc3N2Cc2cc3c(cc2F)OCC(=O)N3)n1 [Compound 30] | 68 | – |
| [2H]C([2H])([2H])n1nnc(C[C@H]2COc3cc(F)ccc3N2Cc2ccc3c(c2)NC(=O)CO3)n1 [Compound 34] | 130 | – |
| CC(=O)S[C@@H]1CC2=CC(=O)CC[C@]2(C)[C@H]2CC[C@@]3(C)[C@@H](CC[C@@]34CCC(=O)O4)[C@H]12 [spironolactone] | – | nuclear receptor selectivity (nuclear receptor): poor |

Further compounds by falling IC50 (MR), results first:

| IC50 (MR) [nM] | Structure (SMILES) | further results |
| --- | --- | --- |
| 62 | Cc1noc(C[C@H]2COc3cc(F)ccc3N2Cc2cc(F)c3c(c2)NC(=O)CO3)n1 [Compound 18] | – |
| 50.8 | O=C1COc2ccc(CN3c4ccc(F)cc4OC[C@@H]3Cc3c[nH]nn3)c(F)c2N1 [Compound 32] | – |
| 50 | O=C1COc2ccc(CN3c4ccc(F)cc4OC[C@@H]3Cn3nccn3)cc2N1 [Compound 21] | – |
| 43.9 | Cc1c(CN2c3ccc(F)cc3OC[C@@H]2Cc2nnn(C)n2)ccc2c1NC(=O)CO2 [Compound 37] | bioavailability ([1]; PO (100 mg/kg)): 142%; clearance [1]: 47.9 mL/min/kg; Vd [1]: 4.75 L/kg; AUC(0-t) ([1]; PO (100 mg/kg)): 116 µM·h; Cmax ([1]; PO (100 mg/kg)): 18.9 µM |
| 35 | [2H]C([2H])([2H])c1noc(C[C@H]2COc3cc(F)ccc3N2Cc2ccc3c(c2)NC(=O)CO3)n1 [Compound 28] | – |
| 32 | Cc1nnn(C[C@H]2COc3cc(F)ccc3N2Cc2cc3c(cc2F)OCC(=O)N3)n1 [Compound 24] | – |
| 32 | Cn1nnc(C[C@H]2COc3cc(F)ccc3N2Cc2cc(Cl)c3c(c2)NC(=O)CO3)n1 [Compound 26] | – |
| 29.1 | Cc1c(CN2c3c(F)cc(F)cc3OCC2CC(N)=O)ccc2c1NC(=O)CO2 (single isomer, unassigned) [Compound 42a] | bioavailability ([1]; PO (10 mg/kg)): 34.6%; clearance [1]: 24.4 mL/min/kg; Vd [1]: 1.57 L/kg; AUC(0-t) ([1]; PO (10 mg/kg)): 5.93 µM·h; Cmax ([1]; PO (10 mg/kg)): 2.74 µM |
| 29 | [2H]C([2H])(c1ccc2c(c1)NC(=O)CO2)N1c2ccc(F)cc2OC[C@@H]1Cc1nc(C)no1 [Compound 23] | – |
| 27 | Cc1noc(C[C@H]2COc3cc(F)ccc3N2Cc2ccc3c(c2)NC(=O)CO3)n1 [Compound 12] | – |
| 27 | O=C1COc2cc(F)c(CN3c4ccc(F)cc4OC[C@@H]3Cn3nccn3)cc2N1 [Compound 20] | – |
| 22.6 | Cn1nnc(C[C@H]2COc3cc(F)ccc3N2Cc2ccc3c(c2Cl)NC(=O)CO3)n1 [Compound 38] | – |
| 22 | [2H]C([2H])([2H])c1noc(C[C@H]2COc3cc(F)ccc3N2Cc2cc3c(cc2F)OCC(=O)N3)n1 [Compound 29] | – |
| 18 | NC(=O)CC1COc2cc(F)cc(F)c2N1Cc1ccc2c(c1Cl)NC(=O)CO2 (single isomer, unassigned) [Compound 43a] | – |
| 15 | Cc1noc(C[C@H]2COc3cc(F)ccc3N2Cc2cc(Cl)c3c(c2)NC(=O)CO3)n1 [Compound 10] | – |
| 13.7 | Cc1noc(C[C@H]2COc3cc(F)ccc3N2Cc2ccc3c(c2C)NC(=O)CO3)n1 [Compound 36] | bioavailability ([1]; PO (100 mg/kg)): 64.9%; clearance [1]: 82.6 mL/min/kg; Vd [1]: 6.96 L/kg; AUC(0-t) ([1]; PO (100 mg/kg)): 29.9 µM·h; Cmax ([1]; PO (100 mg/kg)): 5.62 µM |
| 11 | Cn1nnc(C[C@H]2COc3cc(F)ccc3N2Cc2ccc3c(c2F)NC(=O)CO3)n1 [Compound 33] | – |
| 9 | Cc1noc(C[C@H]2COc3cc(F)ccc3N2Cc2ccc3c(c2F)NC(=O)CO3)n1 [Compound 22] | – |
